According to PubChem BioAssay (NCI):
Where “and” joins values, the source holds several entries; their conditions need not be identical. Identical values can stand only once.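 Cells were grown in 96-well plates and exposed to each compound for 48 hours at five concentrations; endpoints were interpolated linearly between bracketing concentrations, or set to the highest concentration if not reached. GI50 marks 50% less growth. TGI: total growth inhibition.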

Experiments:
Assay in all cases: NCI anticancer screen, dose series, 48 h
A498 renal = tested on: A498 renal
CAKI-1 renal = tested on: CAKI-1 renal
HCC-2998 colon = tested on: HCC-2998 colon
M14 melanoma = tested on: M14 melanoma
SF-539 CNS = tested on: SF-539 CNS
SK-MEL-28 melanoma = tested on: SK-MEL-28 melanoma
SNB-75 CNS = tested on: SNB-75 CNS
SR leukemia = tested on: SR leukemia
TK-10 renal = tested on: TK-10 renal
UACC-257 melanoma = tested on: UACC-257 melanoma

Compound	GI50 (A498 renal)	TGI (A498 renal)	GI50 (CAKI-1 renal)	TGI (CAKI-1 renal)	GI50 (HCC-2998 colon)	TGI (HCC-2998 colon)	GI50 (M14 melanoma)	TGI (M14 melanoma)	GI50 (SF-539 CNS)	TGI (SF-539 CNS)	TGI (SK-MEL-28 melanoma)	TGI (SNB-75 CNS)	GI50 (SR leukemia)	TGI (SR leukemia)	GI50 (TK-10 renal)	TGI (TK-10 renal)	GI50 (UACC-257 melanoma)	TGI (UACC-257 melanoma)	GI50 (SK-MEL-28 melanoma)	GI50 (SNB-75 CNS)
Nc1nc(=O)n(C2CC(O)C(CO)O2)cc1F (centres undefined)	0.046 µM	> 100 µM	< 0.0119 µM	> 100 µM	0.000943 µM	> 26.4 µM	0.222 µM	> 100 µM	0.00418 µM	< 0.0448 µM	> 100 µM	> 100 µM	> 100 µM	> 100 µM	> 100 µM	> 100 µM	> 100 µM	> 100 µM		
O=C(CCC(=O)Nc1ccccc1C(F)(F)F)N/N=C1\C(=N\NC(=O)CCC(=O)Nc2ccccc2C(F)(F)F)C(c2ccc3c(c2)OCO3)Oc2ccccc21 (centres undefined)		> 100 µM		98 µM		> 100 µM		> 100 µM		54.6 µM	> 100 µM	43.2 µM		> 100 µM		> 100 µM		> 100 µM		
O=C1c2c(O)cccc2C(C(=O)CCCCCC(=O)C2c3cccc(O)c3C(=O)c3c(O)cccc32)c2cccc(O)c21	21 µM	10.9 µM and 37.6 µM	10.6 µM	10.2 µM and 19.9 µM	2.83 µM	25 µM and 12.7 µM	7.79 µM	2.5 µM and 16.8 µM	6.64 µM		4.63 µM and 14.8 µM	6.15 µM and 7.22 µM		4.33 µM	8.83 µM	7.61 µM and 18.7 µM	3.9 µM	2.73 µM and 10.6 µM	7.4 µM	1.69 µM
O=C(Nc1ccccc1[N+](=O)[O-])/C(=N/Nc1cccc(Cl)c1)c1c(O)c2ccccc2oc1=O		> 100 µM		> 100 µM		> 100 µM		> 100 µM		> 100 µM	> 100 µM	> 100 µM		2.67 µM		> 100 µM		> 100 µM		
O=C(NC1CCN(Cc2ccccc2)CC1)c1cc(-c2cccnc2)nc2ccc(Cl)cc12		5.49 µM	3.24 µM	19.1 µM	5.51 µM	> 100 µM			11.9 µM	24.2 µM	> 100 µM	12.7 µM	2.71 µM	12.9 µM			> 100 µM	> 100 µM	16.3 µM	2.18 µM
C[C@@H]1CC[C@H]2[C@@H](C)C(O)O[C@@H]3O[C@]4(C)CC[C@@H]1[C@]32OO4 (some centres undefined)	2.89 µM	> 96.6 µM	0.758 µM	> 47.2 µM	2.6 µM	> 63.2 µM	1.24 µM	24.2 µM	0.868 µM	14.2 µM	> 74.5 µM	15.6 µM	0.199 µM	0.898 µM	0.854 µM	9.64 µM	0.748 µM	> 100 µM	3.23 µM	2.54 µM
NCCOc1ccc(/C(=C(/Cl)c2ccccc2)c2ccccc2)cc1		34.1 µM		23.2 µM		14.8 µM		5.29 µM		28.9 µM	18.6 µM	24.1 µM		12.1 µM		26.2 µM		24.8 µM		
NC1=NN(c2ccccc2)C(=O)C1C(=O)C(=O)Nc1ccc(Cl)cc1 (centres undefined)		> 100 µM		> 100 µM		> 100 µM		> 100 µM		> 100 µM	> 100 µM	> 100 µM		> 100 µM		> 100 µM		> 100 µM		
N#CCCN(CCC#N)c1ccc(/C=C(/NC(=O)c2cc([N+](=O)[O-])ccc2Cl)C(=O)N=[N+]=[N-])cc1		> 100 µM		> 100 µM		> 100 µM		> 100 µM		> 100 µM	> 100 µM	> 100 µM		> 100 µM		> 100 µM		> 100 µM		
CCCCCCCCCCC(=O)CCCCCCC(=O)O		42.7 µM		81.5 µM		36.1 µM		47.9 µM		43.8 µM	> 100 µM	> 100 µM		44.2 µM		> 100 µM		> 100 µM		
CN(C)c1ccc(/C=C/C(=O)c2ccc(Nc3nc(Nc4ccc(F)cc4)nc(Nc4ccc(F)cc4)n3)cc2)cc1	13 µM	30.8 µM	21.8 µM	63.3 µM	11 µM	32.5 µM	11.2 µM	34.6 µM	19 µM	44.6 µM	75.5 µM	39 µM	7.12 µM	> 100 µM	28.7 µM	> 100 µM	22.5 µM	90.9 µM	17 µM	13.8 µM
COc1ccc(-c2nn(-c3cccc(Cl)c3)cc2/C=C2\NC(=S)N(c3ccc(Cl)cc3)C2=O)cc1	3.51 µM	8.56 µM	4.79 µM	13.2 µM	7.93 µM	> 25 µM	4.39 µM	10.2 µM	8.22 µM	> 25 µM	7.97 µM	4.47 µM	3.59 µM	7.29 µM	6.37 µM	16 µM	3.95 µM	8.55 µM	4.1 µM	0.95 µM
CC(=O)Nc1ccccc1-c1nc2ccccc2nc1-c1ccccc1		> 100 µM		> 100 µM		> 100 µM		> 100 µM		> 100 µM	> 100 µM	> 100 µM		> 100 µM				> 100 µM		
Cc1nnc(C[C@@H]2C=C(c3ccc(Cl)cc3)c3ccccc3-n3c(C)nnc32)o1	0.712 µM	12.7 µM	0.133 µM	93.7 µM	1.33 µM	18.6 µM	0.529 µM	56.7 µM	1.16 µM	54.3 µM	> 100 µM	47.3 µM	0.27 µM	> 70.6 µM	0.148 µM	27.1 µM	2.43 µM	> 100 µM	2.24 µM	0.048 µM
Cc1cc(=O)oc2c(C3=NN(C=O)C(c4ccccc4)C3)c(O)ccc12 (centres undefined)		> 92.9 µM		> 94.9 µM		> 100 µM		> 95.9 µM		> 94.4 µM	> 100 µM	17.2 µM		> 100 µM		87.9 µM		> 100 µM		
C[N+]1=C(c2cccnc2/C=N/O)OCC1(C)C		> 100 µM		> 100 µM		> 100 µM		> 100 µM		> 100 µM	> 100 µM	> 100 µM		> 100 µM		> 100 µM		> 100 µM		
CCOC(=O)/C(=C/CC/C(C)=C/CC/C(C)=C/CCc1ccoc1)CC(=O)N1CCCCC1	1.27 µM	3.08 µM	3.16 µM	38.3 µM	3.93 µM	14.3 µM	2.95 µM	10.2 µM	7.9 µM	20.9 µM	12.4 µM	35.3 µM	3.11 µM	16 µM	5.66 µM	75.5 µM	2.29 µM	7.41 µM	3.2 µM	4.1 µM
O=C(COc1ccc(/C=C2\Oc3ccc4ccccc4c3C2=O)cc1)c1ccc([N+](=O)[O-])cc1	41.5 µM	> 100 µM	18.8 µM	35.4 µM	16.7 µM	31.6 µM	12.1 µM	40.6 µM	13.8 µM	28.1 µM	40.2 µM	13.6 µM	0.0291 µM	1.84 µM	16.6 µM	49.3 µM	18.9 µM	58.5 µM	19.4 µM	1.47 µM
Cc1cccc2c(C3=C(c4cn(C)c5ccccc45)C(=O)NC3=O)cn(C)c12	> 25 µM	> 25 µM	> 19.1 µM	> 25 µM	> 25 µM	> 25 µM	> 25 µM	> 25 µM	19.1 µM	> 25 µM	> 25 µM	> 25 µM	4.88 µM	> 25 µM	> 25 µM	> 25 µM	24.8 µM	> 25 µM	17.5 µM	1.15 µM
Cc1cc(F)c(C(=O)Nc2cccc(-c3nncn3C(C)C)n2)cc1-n1cnc(C2CC2)c1	14.2 µM	62.6 µM	10.5 µM	> 100 µM	14.3 µM	> 100 µM			11.6 µM	34.4 µM	64.7 µM	64.3 µM	4.42 µM	> 100 µM	8.12 µM	92.5 µM	32.8 µM	85.7 µM	20.9 µM	10.3 µM
O=CC(OC(=O)c1ccccc1)C(OC(=O)c1ccccc1)C(COC(c1ccccc1)(c1ccccc1)c1ccccc1)OC(=O)c1ccccc1 (centres undefined)	15.5 µM	29.7 µM	25.1 µM	72.2 µM	17.4 µM	31.5 µM	14 µM	30.3 µM	5.28 µM	19.4 µM	28.3 µM	22.9 µM	1.3 µM	4.03 µM	20.4 µM	50.3 µM	13.9 µM	34.4 µM	13.5 µM	10.2 µM
Cc1cc(S(=O)(=O)/N=C(\N)Nc2cccc(O)c2)c(SCc2ccccc2)cc1Cl	17.8 µM	35.7 µM	16 µM	34.2 µM	32.6 µM	65.1 µM	11.1 µM	26.7 µM	18 µM	38.8 µM	31 µM	26.5 µM	16.2 µM	> 100 µM	21.2 µM	49.5 µM	17.7 µM	35.1 µM	14.1 µM	10.8 µM
CC(Oc1cc2oc(=O)cc(-c3ccccc3)c2cc1Cl)C(=O)O (centres undefined)		> 100 µM		> 100 µM		> 100 µM		> 100 µM		> 100 µM	> 100 µM	> 100 µM		> 100 µM		> 100 µM		> 100 µM		
CC1CC(C[N+](=O)[O-])CC2(C1)OCCO2 (centres undefined)		> 100 µM		> 100 µM		> 100 µM		> 100 µM		> 100 µM	> 100 µM	> 100 µM		> 100 µM		> 100 µM		> 100 µM		
NC(CCSCC(F)(F)F)C(=O)O (centres undefined)		> 100 µM		> 100 µM		> 100 µM		> 100 µM		> 100 µM	> 100 µM	> 100 µM		> 100 µM		> 100 µM		> 100 µM		
O=C(CCc1nc(=S)[nH][nH]1)Nc1cc(Cl)ccc1Cl		> 100 µM		> 100 µM		> 100 µM		> 100 µM		> 100 µM	> 100 µM	> 100 µM		> 100 µM		> 100 µM		> 100 µM		
COC(=O)C(C(=O)C(=O)Nc1ccc(C)cc1)c1nc2ccc([N+](=O)[O-])cc2[nH]c1=O (centres undefined)		> 100 µM		> 100 µM		> 100 µM		> 100 µM		> 100 µM	> 100 µM	> 100 µM		> 100 µM		> 100 µM		> 100 µM		
CC[C@@]1(O)C(=O)OCc2c1cc1n(c2=O)Cc2cc3cc(Cl)ccc3nc2-1	0.00878 µM and 0.0517 µM	0.132 µM and 0.221 µM		1.07 µM and 1.19 µM	0.0277 µM and 0.0364 µM	0.202 µM and 0.32 µM	0.00467 µM	0.0853 µM and 0.0476 µM	0.00467 µM		4.52 µM and 8.65 µM	0.053 µM and 0.0414 µM	0.00232 µM and 0.0143 µM		2.58 µM and 1.87 µM	> 100 µM	0.0389 µM and 0.0857 µM	0.953 µM and 1.11 µM	0.0542 µM and 0.0355 µM	0.00253 µM
N#C/C(=C\c1ccc(O)c(O)c1)C(=O)NCc1ccc(C(F)(F)F)cc1	16 µM	36.1 µM		1.81 µM	12.1 µM	24.5 µM			5.5 µM	17.8 µM	57 µM	55.7 µM	2.47 µM	6 µM		10.4 µM	17.9 µM	> 68.6 µM	16.9 µM	13.3 µM
Cc1cc2c(cc1Cl)SC(N(c1ccccc1Cl)S(=O)(=O)c1ccc(Br)s1)=NS2(=O)=O	11.3 µM	42 µM	19.4 µM	48.4 µM	19.7 µM	53.4 µM	18.5 µM	47.3 µM	9.92 µM	23.7 µM	29.6 µM	48.7 µM	23.8 µM	83.4 µM	21.9 µM	66.4 µM			15.2 µM	17.3 µM
